Assay results taken from PubChem BioAssay (NCI).
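Each compound was tested at five concentrations against cells in 96-well plates for 48 hours. GI50 is the concentration that inhibits growth by half. TGI denotes the concentration required for complete inhibition of growth.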

Legend:
Test in all cases: NCI tumour cell line growth inhibition, 48 h
786-0 renal = tested on: 786-0 renal
A498 renal = tested on: A498 renal
A549 NSCLC = tested on: A549 NSCLC
ACHN renal = tested on: ACHN renal
BT-549 breast = tested on: BT-549 breast
CAKI-1 renal = tested on: CAKI-1 renal
CCRF-CEM leukemia = tested on: CCRF-CEM leukemia
COLO 205 colon = tested on: COLO 205 colon
DU-145 prostate = tested on: DU-145 prostate
EKVX NSCLC = tested on: EKVX NSCLC
HCC-2998 colon = tested on: HCC-2998 colon
HCT-116 colon = tested on: HCT-116 colon
HCT-15 colon = tested on: HCT-15 colon
HL-60(TB) leukemia = tested on: HL-60(TB) leukemia
HOP-62 NSCLC = tested on: HOP-62 NSCLC
HOP-92 NSCLC = tested on: HOP-92 NSCLC
HS 578T breast = tested on: HS 578T breast
HT29 colon = tested on: HT29 colon
IGROV1 ovarian = tested on: IGROV1 ovarian
K-562 leukemia = tested on: K-562 leukemia
KM12 colon = tested on: KM12 colon
LOX IMVI melanoma = tested on: LOX IMVI melanoma
M14 melanoma = tested on: M14 melanoma
MALME-3M melanoma = tested on: MALME-3M melanoma
MCF7 breast = tested on: MCF7 breast
MDA-MB-231 breast = tested on: MDA-MB-231 breast
MDA-MB-435 = tested on: MDA-MB-435
MOLT-4 leukemia = tested on: MOLT-4 leukemia
NCI-H226 lung = tested on: NCI-H226 lung
NCI-H23 lung = tested on: NCI-H23 lung
NCI-H460 lung = tested on: NCI-H460 lung
NCI-H522 lung = tested on: NCI-H522 lung
NCI/ADR-RES ovarian = tested on: NCI/ADR-RES ovarian
OVCAR-3 ovarian = tested on: OVCAR-3 ovarian
OVCAR-4 ovarian = tested on: OVCAR-4 ovarian
OVCAR-5 ovarian = tested on: OVCAR-5 ovarian
OVCAR-8 ovarian = tested on: OVCAR-8 ovarian
PC-3 prostate = tested on: PC-3 prostate
RPMI-8226 leukemia = tested on: RPMI-8226 leukemia
RXF 393 renal = tested on: RXF 393 renal
SF-268 CNS = tested on: SF-268 CNS
SF-295 CNS = tested on: SF-295 CNS
SF-539 CNS = tested on: SF-539 CNS
SK-MEL-2 melanoma = tested on: SK-MEL-2 melanoma
SK-MEL-28 melanoma = tested on: SK-MEL-28 melanoma
SK-MEL-5 melanoma = tested on: SK-MEL-5 melanoma
SK-OV-3 ovarian = tested on: SK-OV-3 ovarian
SN12C renal = tested on: SN12C renal
SNB-19 CNS = tested on: SNB-19 CNS
SNB-75 CNS = tested on: SNB-75 CNS
SR leukemia = tested on: SR leukemia
SW-620 colon = tested on: SW-620 colon
T-47D breast = tested on: T-47D breast
TK-10 renal = tested on: TK-10 renal
U251 CNS = tested on: U251 CNS
UACC-257 melanoma = tested on: UACC-257 melanoma
UACC-62 melanoma = tested on: UACC-62 melanoma
UO-31 renal = tested on: UO-31 renal

SMILES: CC(C)=CC(=O)OCC(=O)O[C@@H]1C[C@]2(C(C)C)O[C@@]1(C)[C@@H]1CC[C@@H](C)[C@H]1[C@@H]2OC(=O)/C=C/c1ccccc1
- GI50 (786-0 renal): 7.21 µM
- TGI (786-0 renal): > 100 µM
- GI50 (A498 renal): 0.179 µM
- TGI (A498 renal): 0.679 µM
- GI50 (A549 NSCLC): > 57.2 µM
- TGI (A549 NSCLC): > 100 µM
- GI50 (ACHN renal): 0.3 µM
- TGI (ACHN renal): > 19.6 µM
- GI50 (BT-549 breast): 2.11 µM
- TGI (BT-549 breast): > 73.2 µM
- GI50 (CAKI-1 renal): 0.346 µM
- GI50 (CCRF-CEM leukemia): 29.6 µM
- TGI (CCRF-CEM leukemia): > 100 µM
- GI50 (COLO 205 colon): > 48.5 µM
- TGI (COLO 205 colon): > 65.3 µM
- GI50 (DU-145 prostate): > 69.2 µM
- TGI (DU-145 prostate): > 100 µM
- GI50 (EKVX NSCLC): > 51 µM
- TGI (EKVX NSCLC): > 100 µM
- GI50 (HCC-2998 colon): > 57.2 µM
- TGI (HCC-2998 colon): > 100 µM
- GI50 (HCT-116 colon): 11 µM
- TGI (HCT-116 colon): > 100 µM
- GI50 (HCT-15 colon): 42.1 µM
- TGI (HCT-15 colon): > 100 µM
- GI50 (HL-60(TB) leukemia): 11.6 µM
- TGI (HL-60(TB) leukemia): > 69.4 µM
- GI50 (HOP-62 NSCLC): > 62.3 µM
- TGI (HOP-62 NSCLC): > 100 µM
- GI50 (HOP-92 NSCLC): 5.18 µM
- TGI (HOP-92 NSCLC): > 75.4 µM
- GI50 (HS 578T breast): 0.064 µM
- TGI (HS 578T breast): 0.548 µM
- GI50 (HT29 colon): > 56.4 µM
- TGI (HT29 colon): > 100 µM
- GI50 (IGROV1 ovarian): > 61.8 µM
- TGI (IGROV1 ovarian): > 100 µM
- GI50 (K-562 leukemia): 7.75 µM
- TGI (K-562 leukemia): > 100 µM
- GI50 (KM12 colon): > 56 µM
- TGI (KM12 colon): > 100 µM
- GI50 (LOX IMVI melanoma): 33.4 µM
- TGI (LOX IMVI melanoma): > 70.5 µM
- GI50 (M14 melanoma): > 57.8 µM
- TGI (M14 melanoma): > 100 µM
- GI50 (MALME-3M melanoma): > 55.5 µM
- TGI (MALME-3M melanoma): > 100 µM
- GI50 (MCF7 breast): 35.3 µM
- TGI (MCF7 breast): > 100 µM
- GI50 (MDA-MB-231 breast): > 51.7 µM
- TGI (MDA-MB-231 breast): > 85.2 µM
- GI50 (MDA-MB-435): > 67.9 µM
- TGI (MDA-MB-435): > 100 µM
- GI50 (MOLT-4 leukemia): 43.4 µM
- TGI (MOLT-4 leukemia): > 100 µM
- GI50 (NCI-H226 lung): 9.47 µM
- TGI (NCI-H226 lung): > 94.1 µM
- GI50 (NCI-H23 lung): > 50.4 µM
- TGI (NCI-H23 lung): > 96.4 µM
- GI50 (NCI-H460 lung): > 63 µM
- TGI (NCI-H460 lung): > 100 µM
- GI50 (NCI-H522 lung): > 62.1 µM
- TGI (NCI-H522 lung): > 100 µM
- GI50 (NCI/ADR-RES ovarian): 2.25 µM
- TGI (NCI/ADR-RES ovarian): > 85.5 µM
- GI50 (OVCAR-3 ovarian): > 42.3 µM
- TGI (OVCAR-3 ovarian): > 100 µM
- GI50 (OVCAR-4 ovarian): 30.2 µM
- TGI (OVCAR-4 ovarian): > 100 µM
- GI50 (OVCAR-5 ovarian): > 62.7 µM
- TGI (OVCAR-5 ovarian): > 100 µM
- GI50 (OVCAR-8 ovarian): 0.912 µM
- TGI (OVCAR-8 ovarian): > 72.9 µM
- GI50 (PC-3 prostate): 6.01 µM
- TGI (PC-3 prostate): > 100 µM
- GI50 (RPMI-8226 leukemia): 7.89 µM
- TGI (RPMI-8226 leukemia): > 100 µM
- GI50 (RXF 393 renal): 0.382 µM
- TGI (RXF 393 renal): 11.7 µM
- GI50 (SF-268 CNS): > 38.1 µM
- TGI (SF-268 CNS): > 100 µM
- GI50 (SF-295 CNS): > 48.3 µM
- TGI (SF-295 CNS): > 100 µM
- GI50 (SF-539 CNS): > 72.7 µM
- TGI (SF-539 CNS): > 100 µM
- GI50 (SK-MEL-2 melanoma): > 56.4 µM
- TGI (SK-MEL-2 melanoma): > 85.9 µM
- GI50 (SK-MEL-28 melanoma): > 63.3 µM
- TGI (SK-MEL-28 melanoma): > 100 µM
- GI50 (SK-MEL-5 melanoma): 49.2 µM
- TGI (SK-MEL-5 melanoma): > 66.1 µM
- GI50 (SK-OV-3 ovarian): > 55.7 µM
- TGI (SK-OV-3 ovarian): > 100 µM
- GI50 (SN12C renal): 5.9 µM
- TGI (SN12C renal): > 93.2 µM
- GI50 (SNB-19 CNS): > 58.5 µM
- TGI (SNB-19 CNS): > 100 µM
- GI50 (SNB-75 CNS): 34.2 µM
- TGI (SNB-75 CNS): > 87.5 µM
- GI50 (SR leukemia): 11.1 µM
- TGI (SR leukemia): > 100 µM
- GI50 (SW-620 colon): > 60.4 µM
- TGI (SW-620 colon): > 100 µM
- GI50 (T-47D breast): 18.9 µM
- TGI (T-47D breast): > 100 µM
- GI50 (TK-10 renal): > 70.4 µM
- TGI (TK-10 renal): > 100 µM
- GI50 (U251 CNS): > 56.4 µM
- TGI (U251 CNS): > 100 µM
- GI50 (UACC-257 melanoma): > 47.5 µM
- TGI (UACC-257 melanoma): > 94.3 µM
- GI50 (UACC-62 melanoma): 24.4 µM
- TGI (UACC-62 melanoma): > 100 µM
- GI50 (UO-31 renal): 0.239 µM
- TGI (UO-31 renal): 2.36 µM
